{"source": "paper PMC2661369", "about": "“The Signal Peptide of Staphylococcus aureus Panton Valentine Leukocidin LukS Component Mediates Increased Adhesion to Heparan Sulfates” (PLoS ONE, 2009)", "molecules": {"B1": {"name": "heparinase III: heparinase III (Sigma) (protein, UniProt Q59289 25-659, looked up)", "Heparin-sulfate lyase": "QSSSITRKDFDHINLEYSGLEKVNKAVAAGNYDDAAKALLAYYREKSKAREPDFSNAEKPADIRQPIDKVTREMADKALVHQFQPHKGYGYFDYGKDINWQMWPVKDNEVRWQLHRVKWWQAMALVYHATGDEKYAREWVYQYSDWARKNPLGLSQDNDKFVWRPLEVSDRVQSLPPTFSLFVNSPAFTPAFLMEFLNSYHQQADYLSTHYAEQGNHRLFEAQRNLFAGVSFPEFKDSPRWRQTGISVLNTEIKKQVYADGMQFELSPIYHVAAIDIFLKAYGSAKRVNLEKEFPQSYVQTVENMIMALISISLPDYNTPMFGDSWITDKNFRMAQFASWARVFPANQAIKYFATDGKQGKAPNFLSKALSNAGFYTFRSGWDKNATVMVLKASPPGEFHAQPDNGTFELFIKGRNFTPDAGVFVYSGDEAIMKLRNWYRQTRIHSTLTLDNQNMVITKARQNKWETGNNLDVLTYTNPSYPNLDHQRSVLFINKKYFLVIDRAIGEATGNLGVHWQLKEDSNPVFDKTKNRVYTTYRDGNNLMIQSLNADRTSLNEEEGKVSYVYNKELKRPAFVFEKPKKNAGTQNFVSIVYPYDGQKAPEISIRENKGNDFEKGKLNLTLTINGKQQLVLVP"}}, "key": {"ECM components": {"test_system": "ECM components", "assay_type": "cell-based, Staphylococcus aureus", "conditions": "constructs expressed in LUG960 (RN6390 in b7), P-luk-PV promoter; ECM proteins 5 µg/mL, absorbance at 540 nm"}, "[1]": {"test_system": "Panton Valentine Leukocidin", "experiment": "Quantification of Panton Valentine Leukocidin production by ELISA", "assay_type": "cell-based, Staphylococcus aureus", "conditions": "supernatant after 24 h of culture, mean±SD, in duplicate", "procedure": "The level of PVL production in the supernatant after 24 h of staphylococcal culture was determined in duplicate by using an ELISA method as described previously.\nThe level of PVL production in the supernatant after 24h of culture was determined in duplicate by using an ELISA method as described previously."}, "[2]": {"assay_type": "physicochemical", "conditions": "purified synthetic peptide", "from_the_text": "To gain insight into the structure and lipotropic properties of the LukS-PV and LukF-PV signal peptides, the solubility and conformation of the corresponding purified synthetic peptides were examined under various stabilizing conditions by using either cosolvents (TFE: water mixtures, SDS) that are very useful tools for probing the propensity of peptides for secondary structure formation ([11], [12], and references therein), or membrane mimetic media including lysolipid (lysophosphatidyl choline, LPC), and detergents (DM, LPC and DPC). […] TFE is known to solubilize hydrophobic peptides as monomers and to stabilize the folding of peptidic sequences with an intrinsic propensity to adopt an α-helical structure. […] Various CD deconvolution methods used indicate a predominant α-helix content ranging from 64 to 77% in SDS and in TFE 50% for LukS-PV signal peptide, but only of about 40% for LukF-PV signal peptide in both media. […] These findings are consistent with the computer prediction that this peptide could easily aggregate (score of 0.8 with Zyggregator [13]). […] Taken together, these analyses indicate that after its processing by the signal peptidase, the LukS-PV signal peptide could readily leave the membrane translocon context and incorporate to the cytosolic or the extracellular aqueous environment."}, "matrix protein": {"test_system": "matrix protein", "experiment": "Effect of heparinase III digestion of ECM proteins on bacterial adhesion", "assay_type": "cell-based, Staphylococcus aureus", "conditions": "increasing concentrations added to coated wells, 1 h at room temperature, before adhesion assay", "procedure": "Figure 4 Inhibition of adhesion to collagen IV by heparinase. Isogenic strains of Staphylococcus aureus examined for their binding capacity (Y-axis, absorbance reading at 540 nm) to collagen IV (Sigma) coated on 96-well plates, at concentrations of 5 µg/mL. Heparinase III was added at increasing concentrations (X-axis) to collagen IV (Sigma) before the adhesion assay. Parental (LUG960) indicates the genetic background in which the genetic modifications were made; LukS-PV SP, parental carrying a plasmid encoding the LukS-PV signal peptide. The vertical lines indicate the standard deviations.\nTo test the effect of digestion of ECM proteins with heparinase, increasing concentrations of heparinase III (Sigma) were added to laminin, elastin and type V, IV, I collagens (Sigma) coated wells, and incubated for 1 h at room temperature. After treatment, the wells were washed with 200 µL PBS 3 times, blocked with 200 µL of 0.2% BSA in PBS at 4°C for 2 h, and used in the adhesion assay."}}, "note": "Where no end group is shown, it is not given here.", "data": [{"molecule": "LukS-PV ΔSP: plasmid encoding LukS-PV without signal peptide (MVKKRLLAATLSLGIITPIATSFHESKA)", "values": [{"measurement": "adhesion phenotype of expressing strain", "setting": "ECM components", "value": "basal level of attachment"}, {"measurement": "PVL levels", "setting": "[1]", "value": "2.39 ± 0.04", "unit": "µg/mL"}]}, {"molecule": "MVKKRLLAATLSLGIITPIATSFHESKA [LukS-PV signal peptide]", "values": [{"measurement": "solubility in water", "setting": "[2]", "value": "largely soluble in water"}]}, {"molecule": "B1", "values": [{"measurement": "effect of heparinase on bacterial adhesion", "setting": "matrix protein", "value": "the bacterial adhesion decreased in a dose-dependent manner"}]}]}
